Measurements published in patent publication US12582617B2, “Methods for treating cancer” (RADIUS PHARMACEUTICALS, INC., priority 2015, dated 2026).
Where a name gives a salt, the structure may show the parent alone.

Experiment: Phase 1 dose escalation study: safety, treatment related AEs
Type: in vivo
Method: The subjects were 40-75 years old with BMI of 18.0-30 kg/m^2. Subjects having evidence of clinically relevant pathology, increased risk of stroke or of history venous thromboembolic events, or use of concomitant medication less than 14 days prior to admission to clinical research center (paracetamol allowed up to 3 days prior) were excluded.
The subjects were treated with placebo or at least one dose p.o., q.d. after a light breakfast for 7 days at dose levels of 200 mg, 500 mg, 750 mg and 1000 mg, respectively.

## CCNCCc1ccc(CN(CC)c2cc(OC)ccc2[C@@H]2CCc3cc(O)ccc3C2)cc1 [RAD1901, (6R)-6-(2-(N-(4-(2-(ethylamino)ethyl)benzyl)-N-ethylamino)-4-methoxyphenyl)-5,6,7,8-tetrahydronaphthalen-2-ol dihydrochloride]
200 mg, Gr1
  Abdominal discomfort (treatment related AE): 3 n(%)
  Abdominal distension (treatment related AE): 1 n(%)
  Abdominal pain (treatment related AE): 2 n(%)
  Diarrhoea (treatment related AE): 0 n(%)
  Dizziness (treatment related AE): 1 n(%)
  Dyspepsia (treatment related AE): 3 n(%)
  Dysphagia (treatment related AE): 0 n(%)
  Flatulance (treatment related AE): 2 n(%)
  Headache (treatment related AE): 3 n(%)
  Hiccups (treatment related AE): 1 n(%)
  Hot flush (treatment related AE): 2 n(%)
  Myalgia (treatment related AE): 2 n(%)
  Nausea (treatment related AE): 5 n(%)
  Odynophagia (treatment related AE): 2 n(%)
  Oesophageal pain (treatment related AE): 0 n(%)
  Salivary hypersecretion (treatment related AE): 2 n(%)
  Sensation of a foreign body (treatment related AE): 2 n(%)
  Vomiting (treatment related AE): 2 n(%)
200 mg, Gr2
  Abdominal discomfort (treatment related AE): 0 n(%)
  Abdominal distension (treatment related AE): 1 n(%)
  Abdominal pain (treatment related AE): 2 n(%)
  Diarrhoea (treatment related AE): 0 n(%)
  Dizziness (treatment related AE): 0 n(%)
  Dyspepsia (treatment related AE): 0 n(%)
  Dysphagia (treatment related AE): 0 n(%)
  Flatulance (treatment related AE): 0 n(%)
  Headache (treatment related AE): 0 n(%)
  Hiccups (treatment related AE): 0 n(%)
  Hot flush (treatment related AE): 0 n(%)
  Myalgia (treatment related AE): 1 n(%)
  Nausea (treatment related AE): 0 n(%)
  Odynophagia (treatment related AE): 0 n(%)
  Oesophageal pain (treatment related AE): 2 n(%)
  Salivary hypersecretion (treatment related AE): 0 n(%)
  Sensation of a foreign body (treatment related AE): 0 n(%)
  Vomiting (treatment related AE): 0 n(%)
200 mg, Gr3
  Abdominal discomfort (treatment related AE): 0 n(%)
  Abdominal distension (treatment related AE): 0 n(%)
  Abdominal pain (treatment related AE): 0 n(%)
  Diarrhoea (treatment related AE): 0 n(%)
  Dizziness (treatment related AE): 0 n(%)
  Dyspepsia (treatment related AE): 0 n(%)
  Dysphagia (treatment related AE): 0 n(%)
  Flatulance (treatment related AE): 0 n(%)
  Headache (treatment related AE): 0 n(%)
  Hiccups (treatment related AE): 0 n(%)
  Hot flush (treatment related AE): 0 n(%)
  Myalgia (treatment related AE): 0 n(%)
  Nausea (treatment related AE): 0 n(%)
  Odynophagia (treatment related AE): 0 n(%)
  Oesophageal pain (treatment related AE): 0 n(%)
  Salivary hypersecretion (treatment related AE): 0 n(%)
  Sensation of a foreign body (treatment related AE): 0 n(%)
  Vomiting (treatment related AE): 0 n(%)
500 mg, Gr1
  Abdominal discomfort (treatment related AE): 0 n(%)
  Abdominal distension (treatment related AE): 1 (7) n(%)
  Abdominal pain (treatment related AE): 3 (21) n(%)
  Diarrhoea (treatment related AE): 3 (21) n(%)
  Dizziness (treatment related AE): 2 (14) n(%)
  Dyspepsia (treatment related AE): 5 (36) n(%)
  Dysphagia (treatment related AE): 1 (7) n(%)
  Flatulance (treatment related AE): 2 (14) n(%)
  Headache (treatment related AE): 1 (7) n(%)
  Hiccups (treatment related AE): 4 (29) n(%)
  Hot flush (treatment related AE): 6 (43) n(%)
  Myalgia (treatment related AE): 0 n(%)
  Nausea (treatment related AE): 3 (21) n(%)
  Odynophagia (treatment related AE): 1 (7) n(%)
  Oesophageal pain (treatment related AE): 1 (7) n(%)
  Salivary hypersecretion (treatment related AE): 2 (14) n(%)
  Sensation of a foreign body (treatment related AE): 1 (7) n(%)
  Vomiting (treatment related AE): 1 (7) n(%)
500 mg, Gr2
  Abdominal discomfort (treatment related AE): 0 n(%)
  Abdominal distension (treatment related AE): 0 n(%)
  Abdominal pain (treatment related AE): 0 n(%)
  Diarrhoea (treatment related AE): 0 n(%)
  Dizziness (treatment related AE): 0 n(%)
  Dyspepsia (treatment related AE): 2 n(%)
  Dysphagia (treatment related AE): 2 n(%)
  Flatulance (treatment related AE): 0 n(%)
  Headache (treatment related AE): 1 n(%)
  Hiccups (treatment related AE): 0 n(%)
  Hot flush (treatment related AE): 0 n(%)
  Myalgia (treatment related AE): 1 n(%)
  Nausea (treatment related AE): 2 n(%)
  Odynophagia (treatment related AE): 1 n(%)
  Oesophageal pain (treatment related AE): 3 n(%)
  Salivary hypersecretion (treatment related AE): 0 n(%)
  Sensation of a foreign body (treatment related AE): 0 n(%)
  Vomiting (treatment related AE): 5 n(%)
500 mg, Gr3
  Abdominal discomfort (treatment related AE): 0 n(%)
  Abdominal distension (treatment related AE): 0 n(%)
  Abdominal pain (treatment related AE): 0 n(%)
  Diarrhoea (treatment related AE): 0 n(%)
  Dizziness (treatment related AE): 0 n(%)
  Dyspepsia (treatment related AE): 0 n(%)
  Dysphagia (treatment related AE): 0 n(%)
  Flatulance (treatment related AE): 0 n(%)
  Headache (treatment related AE): 0 n(%)
  Hiccups (treatment related AE): 0 n(%)
  Hot flush (treatment related AE): 0 n(%)
  Myalgia (treatment related AE): 0 n(%)
  Nausea (treatment related AE): 0 n(%)
  Odynophagia (treatment related AE): 0 n(%)
  Oesophageal pain (treatment related AE): 0 n(%)
  Salivary hypersecretion (treatment related AE): 0 n(%)
  Sensation of a foreign body (treatment related AE): 0 n(%)
  Vomiting (treatment related AE): 1 n(%)
750 mg, Gr1
  Abdominal discomfort (treatment related AE): 1 (13) n(%)
  Abdominal distension (treatment related AE): 1 (13) n(%)
  Abdominal pain (treatment related AE): 1 (13) n(%)
  Diarrhoea (treatment related AE): 0 n(%)
  Dizziness (treatment related AE): 1 (13) n(%)
  Dyspepsia (treatment related AE): 4 (50) n(%)
  Dysphagia (treatment related AE): 3 (38) n(%)
  Flatulance (treatment related AE): 1 (13) n(%)
  Headache (treatment related AE): 3 (38) n(%)
  Hiccups (treatment related AE): 2 (25) n(%)
  Hot flush (treatment related AE): 2 (25) n(%)
  Myalgia (treatment related AE): 1 (13) n(%)
  Nausea (treatment related AE): 2 (25) n(%)
  Odynophagia (treatment related AE): 0 n(%)
  Oesophageal pain (treatment related AE): 1 (13) n(%)
  Salivary hypersecretion (treatment related AE): 2 (25) n(%)
  Sensation of a foreign body (treatment related AE): 0 n(%)
  Vomiting (treatment related AE): 0 n(%)
750 mg, Gr2
  Abdominal discomfort (treatment related AE): 1 n(%)
  Abdominal distension (treatment related AE): 0 n(%)
  Abdominal pain (treatment related AE): 0 n(%)
  Diarrhoea (treatment related AE): 0 n(%)
  Dizziness (treatment related AE): 0 n(%)
  Dyspepsia (treatment related AE): 0 n(%)
  Dysphagia (treatment related AE): 1 n(%)
  Flatulance (treatment related AE): 0 n(%)
  Headache (treatment related AE): 0 n(%)
  Hiccups (treatment related AE): 0 n(%)
  Hot flush (treatment related AE): 0 n(%)
  Myalgia (treatment related AE): 0 n(%)
  Nausea (treatment related AE): 1 n(%)
  Odynophagia (treatment related AE): 0 n(%)
  Oesophageal pain (treatment related AE): 0 n(%)
  Salivary hypersecretion (treatment related AE): 0 n(%)
  Sensation of a foreign body (treatment related AE): 0 n(%)
  Vomiting (treatment related AE): 2 n(%)
750 mg, Gr3
  Abdominal discomfort (treatment related AE): 0 n(%)
